Assay results published in ChEMBL document CHEMBL5360595, “Ligand-Directed Photodegradation of Interacting Proteins: Oxidative HER2/HER3 Heterodimer Degradation with a Lapatinib-Derived Photosensitizer” (J Med Chem, 2023).
Values belong to the compound of their own block, whether it stands above or below them. The source made the active and inactive calls. The calls are words filed in the database; no cut-off is given here.

How the values were obtained:
[1] = molecular target: Serine/threonine-protein kinase AKT (Homo sapiens) (UniProt P31751+Q9Y243+P31749); assay: Inhibition of AKT phosphorylation in human MDA-MB-453 cells at 0.5 uM preincubated for 24 hrs followed by irradiation with 400 to 700 nm 100 mW/cm2 LED light for 10 min by Western blot analysis; format: cell-based; conditions: time 1450.0 min
MDA-MB-453 [2] = assay: Induction of apoptosis in human MDA-MB-453 cells assessed as increase in BAX/Bcl-2 ratio at 0.5 uM preincubated for 24 hrs followed by irradiation with 400 to 700 nm 100 mW/cm2 LED light for 10 min by Western blot analysis; format: functional, cell-based; conditions: time 1450.0 min
MDA-MB-453 [3] = assay: Photocytotoxicity against human MDA-MB-453 cells cultured as 3D spheroids assessed as reduction in cell viability incubated for 72 hrs by CCK-8 assay; format: functional, cell-based; conditions: MDA-MB-453, 72 h
[4] = Photocytotoxicity against human Lapatinib-resistant MDA-MB-453 assessed as reduction in cell viability incubated for 72 hrs in presence of LED light irradiation of 100 mW/cm2 at 400 to 700 nm by CCK-8 assay; format: functional, cell-based; conditions: Lapatinib-resistant MDA-MB-453, light or radiation study
MDA-MB-453 [5] = assay: Induction of apoptosis in human MDA-MB-453 cells assessed as decrease in Bcl-2 expression at 0.5 uM preincubated for 24 hrs followed by irradiation with 400 to 700 nm 100 mW/cm2 LED light for 10 min by Western blot analysis; format: functional, cell-based; conditions: time 1450.0 min
[6] = molecular target: Receptor tyrosine-protein kinase erbB-2 (Homo sapiens, UniProt P04626); assay: Inhibition of HER2 (unknown origin) incubated for 40 mins by Kinase-Glo Max assay; format: cell-based, Sf9
MDA-MB-453 [7] = assay: Photocytotoxicity against human MDA-MB-453 cells cultured as 3D spheroids assessed as reduction in diameter of tumor spheroid size at 0.5 to 10 uM incubated for 72 hrs by bright-field microscopic analysis; format: functional, cell-based; conditions: dose 0.5-10 µM
[8] = molecular target: T1, ErbB-2/ErbB-3 heterodimer (Homo sapiens, UniProt P04626+P21860); assay: Induction of HER2/HER3 degradation in human MDA-MB-453 cells assessed as HER2 degradation preincubated for 24 hrs followed by irradiation with 400 to 700 nm 100 mW/cm2 LED light for 10 min by Western blot analysis; format: cell-based
MDA-MB-453 [9] = assay: Photocytotoxicity against human MDA-MB-453 cells cultured as 3D spheroids assessed as reduction in cell density at 0.5 to 10 uM incubated for 72 hrs by bright-field microscopic analysis; format: functional, cell-based; conditions: dose 0.5-10 µM
MDA-MB-453 [10] = assay: Induction of apoptosis in human MDA-MB-453 cells assessed as increase in cleaved caspase-3 expression at 0.5 uM preincubated for 24 hrs followed by irradiation with 400 to 700 nm 100 mW/cm2 LED light for 10 min by Western blot analysis; format: functional, cell-based; conditions: time 1450.0 min
MDA-MB-453 [11] = assay: Induction of intracellular ROS generation in human MDA-MB-453 cells assessed as increase in green fluorescence signal at 0.5 uM pretreated for 6 hrs followed by irradiation with 400 to 700 nm 100 mW/cm2 LED light for 10 min by DCFH2-DA staining based flow cytometry analysis; format: functional, cell-based; conditions: time 370.0 min
[12] = molecular target: T1, ErbB-2/ErbB-3 heterodimer; assay: Induction of HER2/HER3 degradation in human MDA-MB-453 cells assessed as HER3 degradation preincubated for 24 hrs followed by irradiation with 400 to 700 nm 100 mW/cm2 LED light for 10 min by Western blot analysis; format: cell-based
[13] = molecular target: T1, ErbB-2/ErbB-3 heterodimer; assay: Induction of HER2/HER3 degradation in human MDA-MB-453 cells assessed as increase in HER2/HER3 heterodimer incubated for 24 hrs by Co-immunoprecipitation analysis; format: cell-based
MDA-MB-453 [14] = assay: Photocytotoxicity against human MDA-MB-453 cells cultured as 3D spheroids assessed as reduction in diameter of tumor spheroid size at 0.5 to 10 uM pretreated with compound for 10 mins and measured after 72 hrs in presence of 400 to 700 nm 100 mW/cm2 LED light by bright-field microscopic analysis; format: functional, cell-based; conditions: dose 0.5-10 µM, time 4330.0 min
MDA-MB-453 [15] = assay: Photocytotoxicity against human MDA-MB-453 cells cultured as 3D spheroids assessed as reduction in cell viability pretreated for 10 mins and measured after 72 hrs in presence of 400 to 700 nm 100 mW/cm2 LED light by CCK-8 assay; format: functional, cell-based
[16] = Photocytotoxicity against human Lapatinib-resistant MDA-MB-453 assessed as inhibition of cell growth under hypoxic condition incubated for 72 hrs in presence of LED light irradiation of 100 mW/cm2 at 400 to 700 nm by CCK-8 assay; format: functional, cell-based; conditions: Lapatinib-resistant MDA-MB-453, light or radiation study
[17] = molecular target: T1, ErbB-2/ErbB-3 heterodimer; assay: Induction of HER2/HER3 degradation in human MDA-MB-453 cells assessed as decrease in HER2/HER3 heterodimer preincubated for 24 hrs followed by irradiation with 400 to 700 nm 100 mW/cm2 LED light for 10 min by Co-Immunoprecipitation Analysis; format: cell-based; conditions: time 1450.0 min
MDA-MB-453 [18] = assay: Photocytotoxicity against human MDA-MB-453 cells cultured as 3D spheroids assessed as increase in dead cells by measuring red fluorescence intensity pretreated with compound for 10 mins and measured after 72 hrs in presence of 400 to 700 nm […] LED light by calcein-AM/PI staining based fluorescence analysis; format: functional, cell-based; conditions: time 4330.0 min
[19] = molecular target: Mitogen-activated protein kinase; ERK1/ERK2 (Homo sapiens) (UniProt P27361+P28482); assay: Inhibition of Erk1/2 phosphorylation in human MDA-MB-453 cells at 0.5 uM preincubated for 24 hrs followed by irradiation with 400 to 700 nm 100 mW/cm2 LED light for 10 min by Western blot analysis; format: cell-based; conditions: time 1450.0 min
MDA-MB-453 [20] = assay: Induction of intracellular ROS generation in human MDA-MB-453 cells assessed as increase in green fluorescence signal at […] pretreated for 6 hrs followed by irradiation with 400 to 700 nm 100 mW/cm2 LED light for 10 min by DCFH2-DA staining based flow cytometry analysis; format: functional, cell-based; conditions: time 370.0 min
[21] = Photocytotoxicity against human Lapatinib-resistant MDA-MB-453 cells assessed as reduction in cell viability by CCK-8 assay; format: functional, cell-based

T1 sequence (P04626 whole entry): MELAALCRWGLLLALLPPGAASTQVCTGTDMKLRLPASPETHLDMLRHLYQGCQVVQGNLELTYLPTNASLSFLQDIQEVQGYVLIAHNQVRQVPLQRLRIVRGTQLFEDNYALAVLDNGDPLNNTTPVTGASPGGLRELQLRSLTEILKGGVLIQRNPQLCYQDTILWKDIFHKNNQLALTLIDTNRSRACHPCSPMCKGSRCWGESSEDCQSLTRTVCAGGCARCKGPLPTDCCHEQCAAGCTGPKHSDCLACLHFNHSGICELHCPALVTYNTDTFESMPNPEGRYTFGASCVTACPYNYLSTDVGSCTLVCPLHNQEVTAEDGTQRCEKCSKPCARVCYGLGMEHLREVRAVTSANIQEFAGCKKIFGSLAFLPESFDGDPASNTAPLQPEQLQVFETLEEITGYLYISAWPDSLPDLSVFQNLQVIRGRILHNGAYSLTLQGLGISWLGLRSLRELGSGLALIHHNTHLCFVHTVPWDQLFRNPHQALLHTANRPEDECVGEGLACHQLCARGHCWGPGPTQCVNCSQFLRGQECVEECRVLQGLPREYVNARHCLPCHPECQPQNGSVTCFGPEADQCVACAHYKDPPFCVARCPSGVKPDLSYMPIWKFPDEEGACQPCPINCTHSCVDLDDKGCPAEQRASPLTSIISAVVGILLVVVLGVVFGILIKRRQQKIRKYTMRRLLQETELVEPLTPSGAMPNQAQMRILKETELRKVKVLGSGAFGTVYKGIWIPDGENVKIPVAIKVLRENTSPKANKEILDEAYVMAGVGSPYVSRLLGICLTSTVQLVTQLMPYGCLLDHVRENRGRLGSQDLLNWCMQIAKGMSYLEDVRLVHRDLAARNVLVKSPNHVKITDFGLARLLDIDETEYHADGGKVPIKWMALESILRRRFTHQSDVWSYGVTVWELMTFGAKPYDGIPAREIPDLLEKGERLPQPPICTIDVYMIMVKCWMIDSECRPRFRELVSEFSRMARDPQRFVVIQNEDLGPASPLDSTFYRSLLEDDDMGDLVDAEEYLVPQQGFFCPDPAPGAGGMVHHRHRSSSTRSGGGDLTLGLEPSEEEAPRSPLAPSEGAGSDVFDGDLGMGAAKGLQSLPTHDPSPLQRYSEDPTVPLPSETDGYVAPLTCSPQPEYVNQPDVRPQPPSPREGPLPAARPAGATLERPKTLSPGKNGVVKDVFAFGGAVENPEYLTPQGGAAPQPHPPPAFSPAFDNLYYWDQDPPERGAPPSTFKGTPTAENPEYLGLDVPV
T1 sequence (P21860 whole entry): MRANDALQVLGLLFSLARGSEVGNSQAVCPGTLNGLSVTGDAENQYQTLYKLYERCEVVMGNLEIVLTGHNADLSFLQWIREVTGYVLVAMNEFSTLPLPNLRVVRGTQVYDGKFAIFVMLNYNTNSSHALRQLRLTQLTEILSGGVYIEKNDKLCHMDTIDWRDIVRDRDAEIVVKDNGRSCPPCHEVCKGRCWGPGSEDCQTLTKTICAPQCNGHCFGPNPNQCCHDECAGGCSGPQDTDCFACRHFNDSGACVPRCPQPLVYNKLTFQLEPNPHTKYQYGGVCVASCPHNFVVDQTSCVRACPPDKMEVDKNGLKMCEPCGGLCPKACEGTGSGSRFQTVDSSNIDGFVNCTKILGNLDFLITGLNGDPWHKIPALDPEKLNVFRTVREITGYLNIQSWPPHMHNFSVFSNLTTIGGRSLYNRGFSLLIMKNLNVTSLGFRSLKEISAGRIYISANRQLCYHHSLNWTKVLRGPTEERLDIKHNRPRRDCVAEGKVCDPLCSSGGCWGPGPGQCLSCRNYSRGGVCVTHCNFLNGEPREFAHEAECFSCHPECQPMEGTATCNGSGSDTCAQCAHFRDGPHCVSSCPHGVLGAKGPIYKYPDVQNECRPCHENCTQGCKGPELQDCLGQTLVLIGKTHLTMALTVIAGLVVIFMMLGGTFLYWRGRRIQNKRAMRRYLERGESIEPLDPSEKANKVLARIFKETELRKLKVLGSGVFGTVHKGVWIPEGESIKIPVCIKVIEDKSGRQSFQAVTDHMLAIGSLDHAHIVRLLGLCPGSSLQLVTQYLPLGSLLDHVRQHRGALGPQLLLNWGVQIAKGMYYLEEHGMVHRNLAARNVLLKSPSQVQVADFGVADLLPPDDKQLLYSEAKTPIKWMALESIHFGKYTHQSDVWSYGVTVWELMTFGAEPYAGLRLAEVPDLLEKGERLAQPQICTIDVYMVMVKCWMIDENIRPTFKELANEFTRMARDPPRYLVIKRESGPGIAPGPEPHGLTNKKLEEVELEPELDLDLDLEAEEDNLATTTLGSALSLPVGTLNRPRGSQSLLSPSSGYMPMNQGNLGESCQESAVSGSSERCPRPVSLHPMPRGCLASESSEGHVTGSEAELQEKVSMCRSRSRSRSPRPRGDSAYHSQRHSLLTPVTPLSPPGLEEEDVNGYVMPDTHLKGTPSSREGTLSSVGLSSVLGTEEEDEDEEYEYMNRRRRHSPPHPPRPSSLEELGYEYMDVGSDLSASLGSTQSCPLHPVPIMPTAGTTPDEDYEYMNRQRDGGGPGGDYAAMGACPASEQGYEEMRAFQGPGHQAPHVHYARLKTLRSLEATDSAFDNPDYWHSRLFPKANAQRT
Receptor tyrosine-protein kinase erbB-2, sequence (P04626 whole entry): as the sequence (P04626 whole entry) above
Mitogen-activated protein kinase; ERK1/ERK2 (Homo sapiens), sequence (P27361 whole entry, looked up): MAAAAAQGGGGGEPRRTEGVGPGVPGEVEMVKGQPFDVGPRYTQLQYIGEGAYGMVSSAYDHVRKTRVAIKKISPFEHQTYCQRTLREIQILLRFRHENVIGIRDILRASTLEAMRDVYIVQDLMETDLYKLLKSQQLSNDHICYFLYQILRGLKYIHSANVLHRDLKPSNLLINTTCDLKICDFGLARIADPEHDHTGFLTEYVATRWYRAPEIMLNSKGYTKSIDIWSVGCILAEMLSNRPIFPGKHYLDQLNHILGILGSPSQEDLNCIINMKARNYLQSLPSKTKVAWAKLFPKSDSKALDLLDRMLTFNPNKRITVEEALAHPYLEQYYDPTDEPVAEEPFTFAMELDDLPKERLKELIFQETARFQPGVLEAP
Mitogen-activated protein kinase; ERK1/ERK2 (Homo sapiens), sequence (P28482 whole entry, looked up): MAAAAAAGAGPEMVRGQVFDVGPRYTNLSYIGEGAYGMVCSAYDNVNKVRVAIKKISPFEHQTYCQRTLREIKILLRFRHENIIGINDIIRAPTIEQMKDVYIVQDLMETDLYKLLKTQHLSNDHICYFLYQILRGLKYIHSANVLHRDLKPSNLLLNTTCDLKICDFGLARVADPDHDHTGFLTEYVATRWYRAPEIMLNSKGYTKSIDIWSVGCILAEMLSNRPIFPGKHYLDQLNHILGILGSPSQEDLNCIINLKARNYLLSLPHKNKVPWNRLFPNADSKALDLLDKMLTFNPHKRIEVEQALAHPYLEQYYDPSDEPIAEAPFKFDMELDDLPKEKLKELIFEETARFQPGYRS

- inhibition [1]: Active
- IC50 [6]: 105 nM
- DC50 [8]: 520 nM
- Activity ([8]; time 1450.0 min): Dose-Dependent Effect
- DC50 [12]: 584 nM
- Activity [13]: inactive
- Activity [17]: Active
- inhibition [19]: Active
SMILES: CC[n+]1c(/C=C/c2ccc(-c3ccc4ncnc(Nc5ccc(OCc6cccc(F)c6)c(Cl)c5)c4c3)s2)sc2ccccc21
- Activity (MDA-MB-453 [2]): Active
- IC50 (MDA-MB-453 [3]): > 20000 nM
- IC50 [4]: 226 nM
- Activity (MDA-MB-453 [5]): Active
- Activity (MDA-MB-453 [7]): inactive
- Activity (MDA-MB-453 [9]): inactive
- Activity (MDA-MB-453 [10]): Active
- Activity (MDA-MB-453 [11]): Active
- Activity (MDA-MB-453 [14]): Active
- IC50 (MDA-MB-453 [15]): 2130 nM
- IC50 [16]: 585 nM
- Activity (MDA-MB-453 [18]): Active

SMILES: O=S(=O)(O)c1cc(O)c(O)c(S(=O)(=O)O)c1
- Activity (MDA-MB-453 [20]): Active

SMILES: CS(=O)(=O)CCNCc1ccc(-c2ccc3ncnc(Nc4ccc(OCc5cccc(F)c5)c(Cl)c4)c3c2)o1 [LAPATINIB]
- IC50 (MDA-MB-453 [3]): > 20000 nM
- IC50 [21]: > 5000 nM

- IC50 [6]: 50 nM
SMILES: CC[n+]1c(/C=C/c2ccc(-c3ccc4ncnc(Nc5ccc(OCc6cccc(F)c6)c(Cl)c5)c4c3)o2)sc2ccccc21
- IC50 [4]: 1560 nM
